We go through six compounds from ChEMBL document CHEMBL1158064, “Depsidones from the endophytic fungus BCC 8616” (J Nat Prod, 2006).

The structures appear in SMILES notation. In brackets after ≈: the same amount, converted by molar mass.

One test relates to KB. As to the kind of experiment: Cytotoxicity against human KB cells by colorimetric method. It is filed as functional, cell-based.
Test [1] in a line: Cytotoxicity against human BC cells by colorimetric method. Type of test: functional, cell-based.

The IC50 is the concentration that gives 50% inhibition.

With `C/C=C(\C)c1cc(O)c(C)c2c1Oc1c(CO)c(O)cc(/C(C)=C/C)c1C(=O)O2`, the half-inhibitory concentration (IC50) (with KB; in test [1]) was more than 5 µg/mL in each case.
Consider `COc1cccc2c1C(=O)c1c(O)c3c(c(O)c1C2=O)C[C@@](O)(C(=O)CO)C[C@@H]3O[C@H]1C[C@H](N)[C@H](O)[C@H](C)O1` [DOXORUBICIN], for which inhibition in test [1] was half-maximal at 0.17 µg/mL (≈ 0.313 µM) (IC50).
Consider `C/C=C(\C)c1cc(O)c(C)c2c1Oc1c(C=O)c(O)cc(/C(C)=C/C)c1C(=O)O2`, for which the IC50 with KB was 6.5 µg/mL (≈ 16.5 µM); in test [1] it was 4.1 µg/mL (≈ 10.4 µM).
Turning to `C/C=C(\C)c1cc(OC)c(C)c2c1Oc1c(CO)c(O)cc(/C(C)=C/C(=O)O)c1C(=O)O2` [AURANTICIN A], the IC50 (in the test with KB; in test [1]) was more than 5 µg/mL in each case.
As to `Cc1c2ccncc2c(C)c2c1[nH]c1ccccc12` [ELLIPTECINE], the half-inhibitory concentration (IC50) in the test with KB stood at 0.21 µg/mL (≈ 0.853 µM); in test [1], 0.14 µg/mL (≈ 0.568 µM).
For `C/C=C(\C)c1cc(O)c(C)c2c1Oc1c(COC)c(O)cc(/C(C)=C/C)c1C(=O)O2` the same measures were more than 5 µg/mL and more than 5 µg/mL.
